Measurements published in ChEMBL document CHEMBL1909046, “DrugMatrix in vitro pharmacology data”.

Key:
[1] = molecular target: Vascular endothelial growth factor receptor 1 (Homo sapiens, UniProt P17948); format: cell-based; details: huvec; further: in other assays of this panel Not Active means under 50% inhibition at 10 µM
[2] = molecular target: T1, Polyunsaturated fatty acid lipoxygenase ALOX15 (Oryctolagus cuniculus, UniProt P12530); test: biochemical; format: tissue-based, Reticulocytes;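 further: inhibition of 15-lipoxygenase enzyme activity measured with linoleic acid as the substrate; in other assays of this panel Not Active means under 50% inhibition at 10 µM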
T1 sequence (P12530 whole entry): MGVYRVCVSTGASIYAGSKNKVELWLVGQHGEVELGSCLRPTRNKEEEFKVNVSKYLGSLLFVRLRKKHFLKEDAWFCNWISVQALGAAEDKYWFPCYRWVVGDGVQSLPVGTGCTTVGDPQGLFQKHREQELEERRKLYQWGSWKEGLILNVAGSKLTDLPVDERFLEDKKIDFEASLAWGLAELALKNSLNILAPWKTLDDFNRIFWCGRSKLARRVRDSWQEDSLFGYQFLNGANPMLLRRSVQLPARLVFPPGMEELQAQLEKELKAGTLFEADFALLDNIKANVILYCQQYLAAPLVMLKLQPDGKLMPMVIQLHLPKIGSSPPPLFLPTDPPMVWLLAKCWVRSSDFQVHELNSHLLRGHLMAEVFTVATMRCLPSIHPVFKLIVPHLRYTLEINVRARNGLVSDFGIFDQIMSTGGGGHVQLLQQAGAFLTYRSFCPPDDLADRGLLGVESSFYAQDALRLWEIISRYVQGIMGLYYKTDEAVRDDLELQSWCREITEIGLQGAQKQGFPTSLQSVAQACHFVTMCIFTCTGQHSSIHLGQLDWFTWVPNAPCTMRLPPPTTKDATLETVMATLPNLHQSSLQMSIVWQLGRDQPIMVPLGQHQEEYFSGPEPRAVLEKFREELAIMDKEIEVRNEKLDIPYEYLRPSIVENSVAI

[3] = molecular target: T2, Neuropeptide Y receptor type 2 (Homo sapiens, UniProt P49146); format: cell membranes, Membrane; details: kan-ts; further: in other assays of this panel Not Active means under 50% inhibition at 10 µM
T2 sequence (P49146 whole entry): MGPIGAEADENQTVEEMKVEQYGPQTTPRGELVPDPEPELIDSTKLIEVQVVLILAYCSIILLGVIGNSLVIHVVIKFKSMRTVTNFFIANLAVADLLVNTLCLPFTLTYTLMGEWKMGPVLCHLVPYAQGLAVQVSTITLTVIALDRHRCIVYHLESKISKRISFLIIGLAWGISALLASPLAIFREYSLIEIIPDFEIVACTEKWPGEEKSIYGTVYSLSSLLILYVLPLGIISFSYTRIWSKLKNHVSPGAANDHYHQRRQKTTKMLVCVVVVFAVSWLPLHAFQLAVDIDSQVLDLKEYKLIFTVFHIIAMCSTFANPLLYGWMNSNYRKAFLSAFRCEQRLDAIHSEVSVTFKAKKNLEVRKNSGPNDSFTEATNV

[4] = molecular target: Platelet-activating factor receptor (Homo sapiens, UniProt P25105); format: tissue-based; further: in other assays of this panel Not Active means under 50% inhibition at 10 µM
[5] = molecular target: Receptor tyrosine-protein kinase erbB-2 (Homo sapiens, UniProt P04626); test: biochemical; format: cell-based, Insect cells; details: insect cells
Adenosine receptor A3 = molecular target: T3, Adenosine receptor A3 (Homo sapiens, UniProt P0DMS8); format: cell membranes, CHO-K1, Membrane; details: cho-k1
T3 sequence (P0DMS8 whole entry): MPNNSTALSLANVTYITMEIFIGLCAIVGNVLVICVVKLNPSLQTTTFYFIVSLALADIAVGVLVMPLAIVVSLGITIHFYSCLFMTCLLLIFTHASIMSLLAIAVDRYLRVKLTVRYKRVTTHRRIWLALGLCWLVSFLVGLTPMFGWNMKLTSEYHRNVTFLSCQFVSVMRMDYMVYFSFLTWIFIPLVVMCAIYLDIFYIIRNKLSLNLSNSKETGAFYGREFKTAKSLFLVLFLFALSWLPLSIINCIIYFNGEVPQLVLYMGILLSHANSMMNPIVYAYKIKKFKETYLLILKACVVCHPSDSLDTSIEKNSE

Cytochrome P450 2C9 = Cytochrome P450 2C9 (Homo sapiens, UniProt P11712); details: bti-tn-5b1-4; further: in other assays of this panel Not Active means under 50% inhibition at 10 µM
Cytochrome P450 3A4 = Cytochrome P450 3A4 (Homo sapiens, UniProt P08684); details: bti-tn-5b1-4; further: in other assays of this panel Not Active means under 50% inhibition at 10 µM
[6] = DRUGMATRIX: Atrial Natriuretic Factor (ANF) radioligand binding (ligand: [125I] ANF (rat)); format: cell membranes, Cavia porcellus, Dunkin-Hartley, Adrenal gland, Membrane; details: Not Active = under 50% inhibition at 10 µM
[7] = DRUGMATRIX: Calcium Channel Type L, Phenylalkylamine radioligand binding (ligand: [3H] (-)-Desmethoxyverapamil (D-888)); format: cell membranes, Rattus norvegicus, Wistar, Brain, Membrane; details: Not Active = under 50% inhibition at 10 µM

Receptor tyrosine-protein kinase erbB-2, sequence (P04626 whole entry): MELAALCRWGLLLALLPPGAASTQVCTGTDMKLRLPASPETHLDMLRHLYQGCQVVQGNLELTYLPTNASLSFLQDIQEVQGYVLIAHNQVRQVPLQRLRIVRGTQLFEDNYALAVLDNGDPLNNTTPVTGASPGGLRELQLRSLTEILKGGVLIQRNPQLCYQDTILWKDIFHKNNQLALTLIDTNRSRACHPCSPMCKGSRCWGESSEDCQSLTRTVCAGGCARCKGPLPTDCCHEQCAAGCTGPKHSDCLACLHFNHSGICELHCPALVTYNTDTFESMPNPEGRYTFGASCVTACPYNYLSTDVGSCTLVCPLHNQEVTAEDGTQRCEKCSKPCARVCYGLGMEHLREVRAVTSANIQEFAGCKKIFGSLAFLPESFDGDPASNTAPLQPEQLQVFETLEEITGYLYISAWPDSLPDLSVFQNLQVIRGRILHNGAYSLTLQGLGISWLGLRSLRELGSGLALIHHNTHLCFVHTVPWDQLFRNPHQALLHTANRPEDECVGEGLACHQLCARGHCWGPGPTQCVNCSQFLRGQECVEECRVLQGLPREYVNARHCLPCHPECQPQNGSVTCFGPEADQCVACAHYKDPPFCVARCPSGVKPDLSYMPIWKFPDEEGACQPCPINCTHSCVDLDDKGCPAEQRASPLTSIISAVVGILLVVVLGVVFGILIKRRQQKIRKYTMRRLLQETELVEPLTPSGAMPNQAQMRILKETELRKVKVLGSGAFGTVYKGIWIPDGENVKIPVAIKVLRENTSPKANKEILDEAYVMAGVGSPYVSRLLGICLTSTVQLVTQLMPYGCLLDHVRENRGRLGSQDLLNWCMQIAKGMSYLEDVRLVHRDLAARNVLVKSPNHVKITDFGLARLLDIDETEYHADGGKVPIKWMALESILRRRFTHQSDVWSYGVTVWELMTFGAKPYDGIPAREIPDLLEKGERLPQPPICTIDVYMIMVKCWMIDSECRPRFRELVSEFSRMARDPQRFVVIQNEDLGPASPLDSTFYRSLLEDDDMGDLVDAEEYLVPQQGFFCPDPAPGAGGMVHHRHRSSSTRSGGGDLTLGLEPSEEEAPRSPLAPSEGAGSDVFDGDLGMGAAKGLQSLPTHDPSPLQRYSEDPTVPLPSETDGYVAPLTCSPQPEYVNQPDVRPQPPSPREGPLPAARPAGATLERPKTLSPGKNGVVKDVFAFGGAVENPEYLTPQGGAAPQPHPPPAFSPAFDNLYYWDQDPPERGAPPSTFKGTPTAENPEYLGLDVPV
Cytochrome P450 2C9, sequence (P11712 whole entry): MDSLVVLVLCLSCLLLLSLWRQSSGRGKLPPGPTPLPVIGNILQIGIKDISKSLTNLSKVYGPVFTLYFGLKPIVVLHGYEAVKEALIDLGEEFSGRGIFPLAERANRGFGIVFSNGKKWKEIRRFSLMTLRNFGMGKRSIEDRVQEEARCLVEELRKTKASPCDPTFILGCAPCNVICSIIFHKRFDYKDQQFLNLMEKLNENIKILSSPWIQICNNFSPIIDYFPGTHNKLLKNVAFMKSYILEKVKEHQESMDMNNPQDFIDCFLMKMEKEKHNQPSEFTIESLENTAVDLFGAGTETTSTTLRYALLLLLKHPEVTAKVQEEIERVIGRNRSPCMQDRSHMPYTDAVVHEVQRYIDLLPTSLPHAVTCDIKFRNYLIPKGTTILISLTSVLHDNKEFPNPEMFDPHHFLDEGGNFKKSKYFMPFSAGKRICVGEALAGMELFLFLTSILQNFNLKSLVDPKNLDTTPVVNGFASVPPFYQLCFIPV
Cytochrome P450 3A4, sequence (P08684 whole entry): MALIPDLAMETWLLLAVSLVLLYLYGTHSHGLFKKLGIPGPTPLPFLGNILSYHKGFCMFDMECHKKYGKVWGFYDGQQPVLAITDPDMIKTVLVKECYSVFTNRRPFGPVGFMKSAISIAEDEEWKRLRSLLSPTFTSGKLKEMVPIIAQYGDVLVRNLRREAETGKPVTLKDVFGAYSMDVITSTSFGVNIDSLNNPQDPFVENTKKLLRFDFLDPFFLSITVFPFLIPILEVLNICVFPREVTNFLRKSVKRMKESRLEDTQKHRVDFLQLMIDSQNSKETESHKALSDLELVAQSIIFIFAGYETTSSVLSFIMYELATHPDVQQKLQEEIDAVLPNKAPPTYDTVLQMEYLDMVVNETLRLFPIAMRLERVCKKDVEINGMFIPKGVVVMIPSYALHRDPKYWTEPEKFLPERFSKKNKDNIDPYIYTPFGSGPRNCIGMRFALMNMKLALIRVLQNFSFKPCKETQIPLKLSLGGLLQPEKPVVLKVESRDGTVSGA
Vascular endothelial growth factor receptor 1, sequence (P17948 whole entry): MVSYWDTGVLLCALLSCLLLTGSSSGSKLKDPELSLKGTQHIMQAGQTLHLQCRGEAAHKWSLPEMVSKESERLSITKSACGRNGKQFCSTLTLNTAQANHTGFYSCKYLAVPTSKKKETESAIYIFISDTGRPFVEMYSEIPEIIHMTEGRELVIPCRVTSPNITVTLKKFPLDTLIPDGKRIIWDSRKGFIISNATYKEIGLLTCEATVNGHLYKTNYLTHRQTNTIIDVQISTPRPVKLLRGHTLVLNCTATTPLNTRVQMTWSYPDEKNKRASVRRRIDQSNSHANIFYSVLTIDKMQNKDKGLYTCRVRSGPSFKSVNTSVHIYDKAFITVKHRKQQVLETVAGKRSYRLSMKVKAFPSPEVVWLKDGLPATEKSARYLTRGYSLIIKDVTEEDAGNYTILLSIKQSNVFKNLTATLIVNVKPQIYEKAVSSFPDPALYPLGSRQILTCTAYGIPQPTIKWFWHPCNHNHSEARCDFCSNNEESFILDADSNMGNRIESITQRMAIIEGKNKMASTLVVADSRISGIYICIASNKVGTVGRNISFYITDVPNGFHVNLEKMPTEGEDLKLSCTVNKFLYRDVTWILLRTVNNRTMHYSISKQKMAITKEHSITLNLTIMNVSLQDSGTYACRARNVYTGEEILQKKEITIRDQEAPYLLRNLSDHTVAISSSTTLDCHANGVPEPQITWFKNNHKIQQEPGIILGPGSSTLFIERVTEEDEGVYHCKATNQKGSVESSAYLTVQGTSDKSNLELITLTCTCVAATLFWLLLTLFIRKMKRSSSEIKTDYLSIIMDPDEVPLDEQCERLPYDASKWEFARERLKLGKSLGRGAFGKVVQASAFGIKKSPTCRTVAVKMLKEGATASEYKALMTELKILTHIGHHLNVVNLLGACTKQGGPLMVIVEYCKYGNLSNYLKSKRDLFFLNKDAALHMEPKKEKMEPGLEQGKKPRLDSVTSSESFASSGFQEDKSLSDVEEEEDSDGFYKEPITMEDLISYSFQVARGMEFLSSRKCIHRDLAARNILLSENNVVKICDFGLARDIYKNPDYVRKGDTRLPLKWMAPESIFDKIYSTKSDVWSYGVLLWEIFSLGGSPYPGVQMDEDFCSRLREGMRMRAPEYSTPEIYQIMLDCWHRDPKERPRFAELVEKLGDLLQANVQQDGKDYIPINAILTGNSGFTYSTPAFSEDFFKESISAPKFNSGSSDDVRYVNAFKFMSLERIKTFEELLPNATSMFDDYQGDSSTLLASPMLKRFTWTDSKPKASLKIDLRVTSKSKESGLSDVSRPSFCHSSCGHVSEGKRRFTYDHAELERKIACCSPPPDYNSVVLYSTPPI
Platelet-activating factor receptor, sequence (P25105 whole entry): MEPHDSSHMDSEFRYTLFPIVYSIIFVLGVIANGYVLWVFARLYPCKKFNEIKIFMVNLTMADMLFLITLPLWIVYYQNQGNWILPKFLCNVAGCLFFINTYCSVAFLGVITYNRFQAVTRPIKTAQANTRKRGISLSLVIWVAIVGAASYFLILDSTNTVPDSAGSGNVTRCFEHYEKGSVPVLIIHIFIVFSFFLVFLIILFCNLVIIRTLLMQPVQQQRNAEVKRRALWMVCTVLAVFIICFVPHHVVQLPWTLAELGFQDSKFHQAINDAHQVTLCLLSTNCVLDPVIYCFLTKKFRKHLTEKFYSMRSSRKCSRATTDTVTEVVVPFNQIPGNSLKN

Clc1ccc2c(c1)C(N1CCNCC1)=Nc1ccccc1O2 [AMOXAPINE]
Not Active: IC50 [1] | IC50 ([2]; reticulocytes) | IC50 [3] | IC50 [4] | IC50 [5] | IC50 (Adenosine receptor A3) | IC50 (Cytochrome P450 2C9) | Ki (Cytochrome P450 2C9) | IC50 (Cytochrome P450 3A4) | Ki (Cytochrome P450 3A4)

COc1cc2c(c(OC)c1OC)-c1ccc(OC)c(=O)cc1[C@@H](NC(C)=O)CC2 [COLCHICINE]
Not Active: IC50 [1] | IC50 ([2]; reticulocytes) | IC50 [3] | IC50 [4] | IC50 [5] | IC50 (Adenosine receptor A3) | IC50 (Cytochrome P450 2C9) | Ki (Cytochrome P450 2C9)

CN1CCC(=C2c3ccccc3C=Cc3ccccc32)CC1 [CYPROHEPTADINE]
Not Active: IC50 [1] | IC50 ([2]; reticulocytes) | IC50 [3] | IC50 [4] | IC50 [5] | IC50 (Adenosine receptor A3) | IC50 (Cytochrome P450 2C9) | Ki (Cytochrome P450 2C9) | IC50 (Cytochrome P450 3A4) | Ki (Cytochrome P450 3A4)

CC/C(=C(/CC)c1ccc(O)cc1)c1ccc(O)cc1 [DIETHYLSTILBESTROL]
Not Active: IC50 [1] | IC50 [3] | IC50 [4] | IC50 [5] | IC50 (Cytochrome P450 2C9) | Ki (Cytochrome P450 2C9) | IC50 (Cytochrome P450 3A4) | Ki (Cytochrome P450 3A4)
2960 nM: IC50 ([2]; read-out: IC50)

CC(=O)N1CCN(c2ccc(OCC3COC(Cn4ccnc4)(c4ccc(Cl)cc4Cl)O3)cc2)CC1 (centres undefined) [KETOCONAZOLE]
5420 nM: IC50 ([2]; read-out: IC50)
Not Active: IC50 [6] | Ki [6] | IC50 [1] | IC50 [7] | Ki [7] | IC50 [3] | IC50 [4] | IC50 [5] | IC50 (Adenosine receptor A3) | IC50 (Cytochrome P450 2C9) | Ki (Cytochrome P450 2C9)

C=CCN1CC[C@]23c4c5ccc(O)c4O[C@H]2C(=O)CC[C@@]3(O)[C@H]1C5 [NALOXONE]
Not Active: IC50 [1] | IC50 ([2]; reticulocytes) | IC50 [3] | IC50 [4] | IC50 [5] | IC50 (Adenosine receptor A3)

COCCOC(=O)C1=C(C)NC(C)=C(C(=O)OC(C)C)C1c1cccc([N+](=O)[O-])c1 (centres undefined) [NIMODIPINE]
Not Active: IC50 [6] | Ki [6] | IC50 [1] | IC50 [7] | Ki [7] | IC50 ([2]; reticulocytes) | IC50 [3] | IC50 [4] | IC50 [5] | IC50 (Adenosine receptor A3)

CC(C)NCC(O)COc1cccc2ccccc12 (centres undefined) [PROPRANOLOL]
Not Active: IC50 [1] | IC50 ([2]; reticulocytes) | IC50 [3] | IC50 [4] | IC50 [5] | IC50 (Adenosine receptor A3) | IC50 (Cytochrome P450 2C9) | Ki (Cytochrome P450 2C9) | IC50 (Cytochrome P450 3A4) | Ki (Cytochrome P450 3A4)

O=C(c1ccc(OCCN2CCCCC2)cc1)c1c(-c2ccc(O)cc2)sc2cc(O)ccc12 [RALOXIFENE]
Not Active: IC50 [6] | Ki [6] | IC50 [1] | IC50 ([2]; reticulocytes) | IC50 [3] | IC50 [4] | IC50 [5] | IC50 (Adenosine receptor A3) | IC50 (Cytochrome P450 3A4) | Ki (Cytochrome P450 3A4)
144 nM: Ki ([7]; read-out: Ki)
148 nM: IC50 ([7]; read-out: IC50)

CC(C)c1nc(CN(C)C(=O)N[C@H](C(=O)N[C@@H](Cc2ccccc2)C[C@H](O)[C@H](Cc2ccccc2)NC(=O)OCc2cncs2)C(C)C)cs1 [RITONAVIR]
Not Active: IC50 [6] | Ki [6] | IC50 [1] | IC50 ([2]; reticulocytes) | IC50 [3] | IC50 [4] | IC50 [5] | IC50 (Adenosine receptor A3)

COc1cc(NS(=O)(=O)c2ccc(N)cc2)nc(OC)n1 [SULFADIMETHOXINE]
Not Active: IC50 [6] | Ki [6] | IC50 [1] | IC50 [7] | Ki [7] | IC50 ([2]; reticulocytes) | IC50 [3] | IC50 [4] | IC50 [5] | IC50 (Adenosine receptor A3) | IC50 (Cytochrome P450 3A4) | Ki (Cytochrome P450 3A4)

CC(C)(C)c1ccc(C(O)CCCN2CCC(C(O)(c3ccccc3)c3ccccc3)CC2)cc1 (centres undefined) [TERFENADINE]
Not Active: IC50 [6] | Ki [6] | IC50 [1] | IC50 ([2]; reticulocytes) | IC50 [3] | IC50 [4] | IC50 [5] | IC50 (Adenosine receptor A3) | IC50 (Cytochrome P450 3A4) | Ki (Cytochrome P450 3A4)
624 nM: IC50 ([7]; read-out: IC50)
607 nM: Ki ([7]; read-out: Ki)
